pIC50: −log10 of the molar value. Like-named read-outs stand apart in the source and are kept apart here.
What was measured:
[1] = biological target: T1, EGFR (Homo sapiens, UniProt P00533); experiment: EGFR-Autophosphorylation Assay (AMIKA assay); assay type: biochemical; details: A431 membranes; for inhibition at 1 µM: 1 μM compound; for inhibition at 1 µM / inhibition at 10 µM: EGF-stimulated; for inhibition at 10 µM: 10 μM compound; for pIC50: EGF 200 nM pre-treatment
T1 construct: A431 crude membrane extracts as source of the receptor; endogenous in cells; host or cells: A431 human epidermoid carcinoma cells, crude membranes
T1 sequence (P00533 25-1210): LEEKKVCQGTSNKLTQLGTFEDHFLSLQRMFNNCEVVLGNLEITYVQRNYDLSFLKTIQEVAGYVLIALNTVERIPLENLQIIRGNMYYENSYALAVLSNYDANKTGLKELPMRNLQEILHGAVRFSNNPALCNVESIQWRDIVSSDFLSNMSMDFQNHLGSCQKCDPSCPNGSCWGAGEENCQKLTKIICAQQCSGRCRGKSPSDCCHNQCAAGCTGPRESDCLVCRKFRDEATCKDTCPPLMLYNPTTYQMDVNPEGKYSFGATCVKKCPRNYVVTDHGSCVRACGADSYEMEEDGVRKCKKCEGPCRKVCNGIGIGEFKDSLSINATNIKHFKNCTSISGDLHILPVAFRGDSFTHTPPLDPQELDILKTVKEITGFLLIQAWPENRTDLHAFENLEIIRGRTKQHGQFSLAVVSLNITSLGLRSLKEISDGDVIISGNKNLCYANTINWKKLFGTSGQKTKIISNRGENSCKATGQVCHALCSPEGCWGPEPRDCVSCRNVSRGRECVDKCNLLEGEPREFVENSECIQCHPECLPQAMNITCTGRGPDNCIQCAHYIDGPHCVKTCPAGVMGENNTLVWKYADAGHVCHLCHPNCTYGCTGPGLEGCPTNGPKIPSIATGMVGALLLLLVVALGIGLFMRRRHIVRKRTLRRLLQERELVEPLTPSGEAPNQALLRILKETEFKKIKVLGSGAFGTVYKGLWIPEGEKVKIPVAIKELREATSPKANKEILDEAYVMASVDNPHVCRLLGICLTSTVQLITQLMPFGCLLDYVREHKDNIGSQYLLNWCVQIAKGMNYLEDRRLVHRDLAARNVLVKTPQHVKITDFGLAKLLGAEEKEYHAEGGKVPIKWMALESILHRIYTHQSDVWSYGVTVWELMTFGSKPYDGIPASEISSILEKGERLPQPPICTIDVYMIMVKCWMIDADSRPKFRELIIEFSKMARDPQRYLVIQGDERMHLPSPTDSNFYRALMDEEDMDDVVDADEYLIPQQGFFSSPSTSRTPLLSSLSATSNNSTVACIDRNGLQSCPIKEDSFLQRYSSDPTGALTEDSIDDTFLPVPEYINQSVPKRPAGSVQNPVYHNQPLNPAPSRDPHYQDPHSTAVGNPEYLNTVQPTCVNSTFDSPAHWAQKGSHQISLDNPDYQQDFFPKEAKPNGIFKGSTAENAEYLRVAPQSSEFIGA
Method: EGFR-Autophosphorylation Assay (AMIKA assay) The EGFR autophosphorylation was assayed using A431 crude membrane extracts as source of the receptor. Membrane purification: Membranes were prepared as reported by A. Levitzky et al. (Methods in Enzymology 201, 347 (1991) with minor modifications and adapting the method to the A431 human epidermoid carcinoma cell line. Briefly, low density cells growing in RPMI 1640 plus 10% foetal calf serum were detached using 1 mM EDTA in phosphate buffer saline (PBS) and lysed in cold Lysing buffer (1 ml/10^6 cells) (20 mM HEPES pH 7.6, 10 mM NaCl, 2 mM EDTA, […], 1 mM PMSF). Cells were homogenized by 10 strokes in Dounce homogenizer. Nuclei and debris were removed by low speed centrifugation. Membranes were pelletized by ultracentrifugation (1 h, 100000×g) and resuspended in cold HNG buffer (50 mM HEPES pH 7.6, 125 mM NaCl, 10% glycerol). Protein concentration, determined by Pierce BCA method, was adjusted to 1.5-2 mg/ml. Aliquots were stored at -80° C. Determination of IC50 : […] The reaction was stopped with […] solution. The samples were heated 5 min at 95° C. and submitted to SDS-PAGE (7.5% acrylamide gel). Gels were fixed in 40% methanol:10% acetic acid for 1 h and washed overnight with 20% methanol:7% acetic acid. After 15 min in 50% methanol:2% glycerol gels were dried and exposed overnight. Bands corresponding to EGFR were excised from the gels and counted in a β-counter.

[2] = tested on: A431 cells; experiment: SRB-Antiproliferative assay (A431 assay); assay type: cell-based; details: Homo sapiens, A-431, 72 h, read-out: A431 IC50
Method: SRB-Antiproliferative assay (A431 assay)
A431 cells were seeded into 96-well microtiter plates (5000 cells/cm^2) and incubated overnight at 37° C./5% CO2. Compounds dissolved in DMSO were added in serial dilution and plates were incubated for 3 days at 37° C./5% CO2. Cells were fixed with cold TCA (10% final concentration) and stained with 0.4% Sulforhodamine B dye in 1% acetic acid for 30 min.

[3] = tested on: EGF-induced tyrosine phosphorylation in A431 cells; experiment: Inhibition of cellular tyrosine autophosphorylation (VAP assay); assay type: cell-based; details: Homo sapiens, A-431, 10 min, read-out: VAP IC50
Method: Inhibition of cellular tyrosine autophosphorylation (VAP assay)
EGF is able to induce the phosphorylation in tyrosine of a specific set of intracellular proteins including EGFR itself. This increase in tyrosine phosphorylation was measured using the Vectastain-ABC-AP kit (Vector Laboratories) following the manufacturer's instructions. Briefly, 2×10^4 A431 cells per well were plated into a microtiter plate and incubated for 3 days at 37° C./5% CO2 until the cultures reached confluency. Cell monolayers were washed with PBS and covered with fresh medium containing 0.1 bovine serum albumin (BSA). Serial dilution of test compounds were added 2 h before the addition of 100 ng/ml EGF; after 10 min stimulation the culture medium was withdrawn, cells were washed 2 times with PBS and fixed for 10 min with cold methanol (-20° C.). After fixation […] of blocking solution (3% BSA in PBS, 0.2% Tween 20, 1% normal horse serum) were added for 1 h at 37° C. Blocking solution was replaced with 3% BSA in PBS containing the antiphosphotyrosine antibody 4G10 (UBI) diluted 1:30000 and incubated for 1 h. […] Reaction was developed for 30 min in the dark and the plates were read at 405 nm.

Row | pIC50 ([2]; A431 cells, 3 days, SRB) | pIC50 ([3]; A431 cells, 100 ng/ml EGF, 10 min stimulation) | Compound | inhibition at 1 µM [1] [%] | inhibition at 10 µM [1] [%] | pIC50 [1] | pIC50 [2] | pIC50 [3]
1 | < 5.81 | 6.10 | COc1cc2ncnc(N[C@H](CO)c3ccccc3)c2cc1OC [FCE 29771, (S)-4-[α-(hydroxymethyl)benzylamino]-6,7dimethoxyquinazoline] | 93.8 | 98.3 | 7.62 | – | –
2 | – | – | COc1cc2ncnc(N[C@H](COC(C)=O)c3ccccc3)c2cc1OC [FCE 29772, (S)-4-[α-(acetoxymethyl)benzylamino]-6,7dimethoxyquinazoline] | 94.9 | 98 | 7.09 | 5.28 | 5.88
